# From patent US20230390386A1, “REPLICATION-DEFECTIVE VACCINES AND USES THEREOF” (priority 2020, published 2023)
# Experiments:
# AD169-GFP = AD169-GFP fluorescence microscopy in ARPE-19 cells after CM treatment of virus; assay type: cell-based, human cytomegalovirus
# Protocol: Fluorescence microscopy: The AD169-GFP viruses were incubated with 100 μM, 10 μM, 1.0 μM, and 0.1 μM of centanamycin as described above. After treatment, the AD169-GFP viruses were washed 3 times with the cDMEM and added to the ARPE-19 cells at an MOI of 0.05. The virus growth was analyzed every day by fluorescence microscopy. In a control experiment, the viruses were only treated with the PET vehicle.
# To understand the pathology of CM treated virus, a GFP-expressing human cytomegalovirus, AD169-GFP, was used with microscopic imaging to visually assess the ability of treated viruses to infect cell.
# MCMV-Luc [1] = test: MCMV-Luc growth curve in NIH 3T3 cells after CM treatment; assay type: cell-based, mouse cytomegalovirus; conditions: two hours at RT, MOI 0.1
# Protocol: Previous studies in the current disclosure had been conducted in vitro. […] This study would identify a CM concentration required to attenuate the MCMV. For this assay, a luciferase-expressing version of MCMV, MCMV-Luc was used, and viral growth was measured as photon counts during intravital imaging using an in vivo imaging system (IVIS). The MCMV-Luc was treated with different concentrations of CM at RT for two hours and then added to NIH 3T3 cells established in 24 well plates in triplicate at a multiplicity of infection (MOI) of 0.1. The MCMV growth curve was determined by measuring the luciferase expression every 24 h using IVIS. […] This information was used to perform In vivo analysis of CM effect on the MCMV replication in the mice.
# MCMV-Luc [2] = test: In vivo analysis of CM treated MCMV-Luc injected into mice (IVIS); conditions: 1×10^5 pfu intraperitoneally
# Protocol: In vivo experiments: To check the efficacy of CM in the animal model, mouse cytomegalovirus expressing the luciferase gene (MCMVLuc) was used. […] The 25×10^6 PFU/ml of MCMVLuc viruses were treated with 10 μM, 1.0 μM, and 0.1 μM of CM for two hours at room temperature. The MCMVLuc viruses were washed with RPMI to remove CM and suspended in 1 ml of incomplete RPMI. Thereafter, 200 μl of the CM treated MCMVLuc was injected into five mice per group. The luciferase activity was measured every other day using bioluminescence assay by an in vivo imaging system (IVIS). Briefly, the mice were anesthetized using isoflurane and injected with the luciferin substrate. The injected mice were incubated at RT for five minutes and luciferase activity was determined using IVIS. In control experiments, the MCMVLuc viruses were treated with PET only and followed in a similar way as described above.
# The MCMV-Luc virus was purified using a sucrose gradient and titrated. Following purification, 5×10^5 pfu of MCMV-Luc was treated with 10 μM, 1 μM and 0.1 μM of CM for 2 hours at RT. Thereafter, treated 1×10^5 pfu were injected intraperitoneally into five mice for each concentration. […] During this attenuated infection, the mouse immune system had sufficient time to recognize the virus as a foreign antigen and generate antibodies specific for the virus. Moreover, since the attenuated MCMV-Luc was whole viral particles, they contained all possible antigens relevant to priming a protective humeral response. As expected, the MCMV-Luc viral particles that were not treated with CM treatment replicated rapidly in the host mice, as observed by IVIS imaging in FIG. 4B.
# E. coli = E. coli growth assay (OD) after CM treatment; assay type: cell-based; conditions: two hours at RT
# Protocol: […] Replicate samples were performed in triplicate. The treated bacterial cells were then added to 96 well, round-bottom plates, which were then incubated at 37° C. in a shaking incubator. The bacterial OD was measured in Glomax Explorer (Promega) every hour to determine the bacterial growth.
# In order to observe the effect of CM on the rate of bacterial growth, a series of studies were conducting observing cultures of treated E. coli (FIG. 7). […] Each treatment condition was repeated in triplicate. The treated E. coli were then added to 96 well round-bottom plates, and cultured at 37° C. in a shaking incubator. The bacterial OD was measured by a Glomax Explorer (Promega) every hour to determine the rate bacterial growth. […] Each data point on the graph in FIG. 7 represents the average of three separate measurements.
# VZV-Luc = test: CM treated VZV-Luc growth in human fetal skin implants of SCID-hu mouse model; assay type: in vivo; conditions: for VZV growth in implanted skin tissues: 10^3 PFU, 12 days
# Excerpt: SCID mice of arbitrary sex, 6-8 weeks old were used to produce the SCID-hu mouse model by implanting human fetal skin under the mouse skin as described previously to study the therapeutic efficacy of CM on the VZV replication and attenuation. The human fetal skin tissues were acquired from Advance Biosciences Resources (Alameda, CA) and processed as described previously (Selariu, Anca et al. “ORF7 of varicella-zoster virus is a neurotropic factor.” Journal of virology vol. 86, 16 (2012): 8614-24.). The VZV-Luc was treated with CM of 10.0 μM, and 1.0 μM followed by washing with DMEM media to remove CM. The acyclovir (30 mg/kg) was used as a positive control. VZV-Luc treated with drug vehicle was used as a mock. The viral load was determined every 48 hours as total photon counts in the infected implanted tissues. The total photon counts were determined using IVIS imaging of infected animals as represented in FIGS. 10A and 10B. The image of one mouse from each group is shown in FIG. 10B after 12 days of post-treatment. Four weeks after implantation, the implanted human tissues were surgically exposed and inoculated with 10^3 PFU of VZV-Luc. Luciferase activity within the implants was measured every 48 h for 12 days using the IVIS200 imaging system and Live Image software.
# [3] = VZV-Luc treated with 10.0 μM CM
compound,measurement,setting,value
"COc1cc2cc(C(=O)Nc3cc(N)c4ccccc4c3CCCl)[nH]c2c(OC)c1OC [CM, centanamycin]",AD169-GFP infection and replication (GFP fluorescence),AD169-GFP; virus treated with 1 μM CM,detected in the infected cells but did not replicate
same,AD169-GFP infection and replication (GFP fluorescence),AD169-GFP; virus treated with 10 μM CM,not able to infect the cells
same,AD169-GFP infection and replication (GFP fluorescence),AD169-GFP; virus treated with 100 μM CM,not detected in the infected cells
same,MCMV-Luc infection and replication (luciferase expression),MCMV-Luc [1]; virus treated with 0.01 μM CM,able to grow and replicate but slower than untreated
same,MCMV-Luc infection and replication (luciferase expression),MCMV-Luc [1]; virus treated with 1.0 μM CM,allowed the virus to infect host cells but not replicate
same,MCMV-Luc infection and replication (luciferase expression),MCMV-Luc [1]; virus treated with 10 μM CM,did not allow the MCMV-Luc to infect the cells
same,MCMV-Luc infection and replication in mice (IVIS),MCMV-Luc [2]; virus treated with 0.1 μM CM,able to infect the mice but did not replicate further from the site of infection
same,MCMV-Luc infection and replication in mice (IVIS),MCMV-Luc [2]; virus treated with 1 μM CM,able to infect the mice but did not replicate further from the site of infection
same,MCMV-Luc infection and replication in mice (IVIS),MCMV-Luc [2]; virus treated with 10 μM CM,did not infect the mice
same,E. coli growth in culture (OD),E. coli; 0.01 μM CM,able to grow slowly in the culture
same,E. coli growth in culture (OD),E. coli; 0.1 μM CM,able to grow slowly in the culture
same,E. coli growth in culture (OD),E. coli; 10 μM CM,did not grow
same,E. coli growth in culture (OD),E. coli; 100 μM CM,did not grow in the culture
same,VZV growth in implanted skin tissues,VZV-Luc; VZV-Luc treated with 1.0 μM CM,growing very slowly and have growth defects
same,Luciferase activity (viral load) in implanted tissues,VZV-Luc; [3],no luciferase activity in implanted tissues
same,VZV growth in implanted skin tissues,VZV-Luc; [3],did not grow in skin implants
